# Laboratory results published in patent US20250367191A1, “TREATMENT OF MITOCHONDRIAL DISEASES WITH A CNS-PENETRANT SGC STIMULATOR ZAGOCIGUAT” (Tisento Therapeutics Inc., priority 2022, published 2025).
# How the values were obtained:
# [1] = tested on: participants diagnosed with MELAS; assay: MELAS study: patient-reported outcomes (PGIC, MFIS, PROMIS); assay type: in vivo, human
# Source text: The Patient-reported Outcomes Measurement Information System (PROMIS) Item Bank v2.0—Cognitive Function is a self-administered questionnaire that assesses multiple aspects of mental fatigue and cognitive function in the past 7 days prior to the administration of the questionnaire. It uses a Likert-type rating scale (eg, “Never” to “Very often”).
# The Patient Global Impression of Change (PGIC) is a single-item questionnaire that assesses the participant's perception of change in his/her overall health status since the start of the study using a Likert-type rating scale (eg, “Very much improved” to “Very much worse”).
# The Modified Fatigue Impact Scale (MFIS) is a self-administered questionnaire that assesses the impact of fatigue in terms of physical, cognitive, and psychosocial functioning over the past 4 weeks. Patients respond using a Likert-type rating scale. (eg, “Never” to “Almost always”).
# healthy participants = assay: Phase I trial NCT03856827, healthy participants aged 18 to 62: EEG; assay type: in vivo, human
# Procedure: Electroencephalography (EEG) is a technique that measures electrical activity in the brain (brain electrophysiology) by using electrodes places on the scalp. EEG-power spectral signals may be analyzed at different frequencies or frequency bands. They were analyzed at the following frequency bands in two prior phase 1 clinical trials with Compound I described below: Delta-1-4 Hz (typically associated with sleep), Theta-4-7.5 Hz (associated with waking/falling asleep, some association with cognition), Alpha-8-12 Hz (associated with passive wakefulness, and with cognitive processing), Beta-12-25 Hz (associated with alertness and concentration) and Gamma-25-45 Hz (associated with higher cognitive function). qEEG stands for quantitative electroencephalography. […]
# During EEG-ERP experiments, several key waveforms may be evaluated following a stimulus: N200 (associated with stimulus identification and distinction), P300 (associated with selective attention, information processing and cognitive speed/capacity), P200 (associated with aspects of selective attention or stimulus encoding), P50 (assciated with sensory gating, or the reduced neurophysiological response to redundant stimuli), and N100 (associated with early perceptal processes). […]
# healthy elderly subjects = conditions: cited from earlier work
# rodent = conditions: single dose; cited from earlier work
# [2] = Two Phase 1 studies in healthy adults aged 18 to 79: safety, PK, PD; assay type: in vivo, human
# Source text: The 15-mg Compound I QD dose was selected based on safety, tolerability, PK, and PD data from repeated dosing at this level in two Phase 1 studies conducted in healthy adults aged 18 to 79 years. […] Across the Phase 1 studies, no safety concerns were identified. […] No impact on cognitive performance measures was observed.
# [3] = tested on: participants diagnosed with MELAS; assay: MELAS study: fMRI-BOLD during resting state and visual stimulus; assay type: in vivo, human
# Procedure: Two exploratory functional neuroimaging modalities, arterial spin labeling (ASL) and functional magnetic resonance imaging (fMRI), were used to measure the potential PD effects of Compound I in the brain. While ASL quantifies regional CBF during the resting state, fMRI is a relative measure based on the blood-oxygen-level-dependent (BOLD) effect and was conducted during both a resting state and during a visual stimulus to measure brain activity.
# Each individual MRI scanning session took approximately 45 minutes (maximum of ˜1 hour).
# [4] = two weeks, 15 mg QD, compared with placebo
# [5] = healthy elderly, 15 mg QD, after 14 days
# [6] = healthy participants, 15 mg QD for up to 15 days
smiles,measurement,setting,value
"Fc1ccccc1Cc1nc(-c2nc(C(F)(F)F)n[nH]2)cn2ccnc12 [Compound I, zagociguat]",participants reporting improvement in their disease (PGIC),[1]; 8 participants,Three of the 8
same,participants reporting no change in their disease (PGIC),[1]; 8 participants,4
same,participants reporting their disease as much worse (PGIC),[1]; 8 participants,1
same,changes in MFIS and PROMIS at the study level,[1]; Day 29,not observed
same,ERP P300 amplitude,"healthy participants; QD dosing, healthy participants aged 18 to 62",increase in amplitude with increasing dose level
same,alpha power,"healthy participants; day 14, all dosage levels tested, compared to placebo",Improvements in alpha power
same,N200 auditory event-related potential (ERP) latencies,"healthy elderly subjects; healthy elderly, 15 mg QD",shortening
same,gamma power (EEG),"healthy elderly subjects; healthy elderly, 15 mg QD",trend increases in gamma power
same,posterior alpha power (EEG),"healthy elderly subjects; healthy elderly, 15 mg QD",increases in posterior alpha power
same,"neuroimaging by ASL and fMRI BOLD, MRS measurements, NeuroCart CNS function assessments",healthy elderly subjects; healthy elderly,No changes were observed
same,CSF concentration of Alpha 2 macroglobulin (A2M),healthy elderly subjects; [4],potentially important reductions
same,CSF concentration of complement C3 (C3),healthy elderly subjects; [4],potentially important reductions
same,fMRI-BOLD signals,rodent,increased fMRI-BOLD signals
same,levels of cGMP in the CNS,rodent,increased levels of cGMP in the CNS
same,qEEG gamma-band oscillatory power,rodent,elevated qEEG gamma-band oscillatory power
same,"PK data, dose dependence",[2]; Phase 1 studies,linear and dose-dependent
same,"PK data, effect of food",[2]; Phase 1 studies,not impacted by food
same,cognitive performance measures,[2]; [5],No impact
same,neurophysiological parameters by EEG,[2]; [5],modest impacts
same,SAEs,[2]; [6],no SAEs reported
same,discontinuations due to AEs,[2]; [6],no discontinuations due to AEs
same,severity of AEs,[2]; [6],mild or moderate
same,"task-based functional MRI (visual activation, flashing checkerboard)",[3]; Day 29 compared to screening and Day 1,increased activation of voxels in the occipital region
same,"task-free functional MRI during resting state, connectivity",[3]; Day 29 compared to screening and day 1,enhanced connecitivity
